Like-named read-outs stand apart in the source and are kept apart here.
Assay: Toxicokinetics test in the satellite groups (UPLC-MS/MS of rat plasma)
Format: in vivo
Conditions: for AUC(0-t) / Cmax / Tmax / half-life: SD, rat, plasma, po; for half-life: read-out: T1/2 mean (converted)
Protocol: SD rats (5 ~ 6 weeks, 3/group/sex) were randomly allocated to three treatment groups and given the same dosage as those in the repeated toxicity experiment for 28 days. […] Carbamazepine was chosen as the internal standard (IS). The blood samples were centrifuged to obtain plasma. Then, 300 μL of acetonitrile containing 40 ng of IS was added to 100 μL of plasma. After vortexing for 1 min, the mixture was centrifuged at 17,000 rpm for 15 min at 4 °C. The supernatant of each sample was injected into a UPLC–MS/MS system for determination. The injection volume was 1 μL. UPLC–MS analysis was performed on a Thermo Fisher Scientific Ultimate 3000 UPLC system (San Jose, USA) and an API 4000 QTRAP mass spectrometer (Foster City, USA) equipped with an ESI source. The mobile phase consisted of 2 solvents: (A) water containing 0.1% formic acid and (B) 100% acetonitrile. For MS, multiple reaction monitoring (MRM) in positive ion mode was used as the scanning mode for the main components and IS in the plasma samples. The dwell time (DT), collision energy (CE), quadrupole 1 pre-rod bias (Q1) and quadrupole 3 pre-rod bias (Q3) are listed in Table 3.

[1] = female, female rats, Day 1, highest dose (berberine 72.08, epiberberine 7.42, coptisine 7.42, palmatine 18.26, jatrorrhizine 2.80, columbamine 5.93 mg/kg)
[2] = female, female rats, Day 1, lowest dose (berberine 8.01, epiberberine 0.82, coptisine 1.38, palmatine 2.03, jatrorrhizine 0.31, columbamine 0.66 mg/kg)
[3] = female, female rats, Day 1, middle dose (berberine 24.03, epiberberine 2.47, coptisine 2.47, palmatine 6.09, jatrorrhizine 0.93, columbamine 1.98 mg/kg)
[4] = female, female rats, Day 28, highest dose (berberine 72.08, epiberberine 7.42, coptisine 7.42, palmatine 18.26, jatrorrhizine 2.80, columbamine 5.93 mg/kg)
[5] = female, female rats, Day 28, lowest dose (berberine 8.01, epiberberine 0.82, coptisine 1.38, palmatine 2.03, jatrorrhizine 0.31, columbamine 0.66 mg/kg)
[6] = female, female rats, Day 28, middle dose (berberine 24.03, epiberberine 2.47, coptisine 2.47, palmatine 6.09, jatrorrhizine 0.93, columbamine 1.98 mg/kg)
[7] = male, male rats, Day 1, highest dose (berberine 72.08, epiberberine 7.42, coptisine 7.42, palmatine 18.26, jatrorrhizine 2.80, columbamine 5.93 mg/kg)
[8] = male, male rats, Day 1, lowest dose (berberine 8.01, epiberberine 0.82, coptisine 1.38, palmatine 2.03, jatrorrhizine 0.31, columbamine 0.66 mg/kg)
[9] = male, male rats, Day 1, middle dose (berberine 24.03, epiberberine 2.47, coptisine 2.47, palmatine 6.09, jatrorrhizine 0.93, columbamine 1.98 mg/kg)
[10] = male, male rats, Day 28, highest dose (berberine 72.08, epiberberine 7.42, coptisine 7.42, palmatine 18.26, jatrorrhizine 2.80, columbamine 5.93 mg/kg)
[11] = male, male rats, Day 28, lowest dose (berberine 8.01, epiberberine 0.82, coptisine 1.38, palmatine 2.03, jatrorrhizine 0.31, columbamine 0.66 mg/kg)
[12] = male, male rats, Day 28, middle dose (berberine 24.03, epiberberine 2.47, coptisine 2.47, palmatine 6.09, jatrorrhizine 0.93, columbamine 1.98 mg/kg)

SMILES: COc1cc2c(cc1O)-c1cc3ccc(OC)c(OC)c3c[n+]1CC2 [columbamine]
- AUC(0-t) (female, 0.4 g/kg, female rats, Day 1, low dose TAZF 0.4 g/kg by gavage, read-out: AUC0-t): 71.4 ± 80.1 ng·h/mL
- Cmax (female, 0.4 g/kg, female rats, Day 1, low dose TAZF 0.4 g/kg by gavage, read-out: Cmax): 30 ± 20.7 ng/mL
- AUC(0-t) (female, 0.4 g/kg, female rats, Day 28, low dose TAZF 0.4 g/kg by gavage, read-out: AUC0-t): 68.1 ± 76.9 ng·h/mL
- Cmax (female, 0.4 g/kg, female rats, Day 28, low dose TAZF 0.4 g/kg by gavage, read-out: Cmax): 30.3 ± 40 ng/mL
- AUC(0-t) (female, 3.7 g/kg, female rats, Day 1, high dose TAZF 3.7 g/kg by gavage, read-out: AUC0-t): 41.1 ± 10 ng·h/mL
- Cmax (female, 3.7 g/kg, female rats, Day 1, high dose TAZF 3.7 g/kg by gavage, read-out: Cmax): 37.7 ± 30.4 ng/mL
- AUC(0-t) (female, 3.7 g/kg, female rats, Day 28, high dose TAZF 3.7 g/kg by gavage, read-out: AUC0-t): 12.2 ± 4.52 ng·h/mL
- Cmax (female, 3.7 g/kg, female rats, Day 28, high dose TAZF 3.7 g/kg by gavage, read-out: Cmax): 2.98 ± 0.24 ng/mL
- Tmax [1]: 0.5 h
- AUC(0-t) (female, female rats, Day 1, highest dose (berberine 72.08, epiberberine 7.42, coptisine 7.42, palmatine 18.26, jatrorrhizine 2.80, columbamine 5.93 mg/kg), read-out: AUC0-t mean): 41.1 ng·h/mL
- Cmax (female, female rats, Day 1, highest dose (berberine 72.08, epiberberine 7.42, coptisine 7.42, palmatine 18.26, jatrorrhizine 2.80, columbamine 5.93 mg/kg), read-out: Cmax mean): 37.7 ng/mL
- half-life [1]: 8.24 h
- Tmax [2]: 2.33 h
- AUC(0-t) (female, female rats, Day 1, lowest dose (berberine 8.01, epiberberine 0.82, coptisine 1.38, palmatine 2.03, jatrorrhizine 0.31, columbamine 0.66 mg/kg), read-out: AUC0-t mean): 71.4 ng·h/mL
- Cmax (female, female rats, Day 1, lowest dose (berberine 8.01, epiberberine 0.82, coptisine 1.38, palmatine 2.03, jatrorrhizine 0.31, columbamine 0.66 mg/kg), read-out: Cmax mean): 30 ng/mL
- half-life [2]: 4.31 h
- Tmax [3]: 0.83 h
- AUC(0-t) (female, female rats, Day 1, middle dose (berberine 24.03, epiberberine 2.47, coptisine 2.47, palmatine 6.09, jatrorrhizine 0.93, columbamine 1.98 mg/kg), read-out: AUC0-t mean): 59.2 ng·h/mL
- Cmax (female, female rats, Day 1, middle dose (berberine 24.03, epiberberine 2.47, coptisine 2.47, palmatine 6.09, jatrorrhizine 0.93, columbamine 1.98 mg/kg), read-out: Cmax mean): 39.6 ng/mL
- half-life [3]: 7.78 h
- Tmax [4]: 1.17 h
- AUC(0-t) (female, female rats, Day 28, highest dose (berberine 72.08, epiberberine 7.42, coptisine 7.42, palmatine 18.26, jatrorrhizine 2.80, columbamine 5.93 mg/kg), read-out: AUC0-t mean): 12.2 ng·h/mL
- Cmax (female, female rats, Day 28, highest dose (berberine 72.08, epiberberine 7.42, coptisine 7.42, palmatine 18.26, jatrorrhizine 2.80, columbamine 5.93 mg/kg), read-out: Cmax mean): 2.98 ng/mL
- half-life [4]: 12.4 h
- Tmax [5]: 0.42 h
- AUC(0-t) (female, female rats, Day 28, lowest dose (berberine 8.01, epiberberine 0.82, coptisine 1.38, palmatine 2.03, jatrorrhizine 0.31, columbamine 0.66 mg/kg), read-out: AUC0-t mean): 68.1 ng·h/mL
- Cmax (female, female rats, Day 28, lowest dose (berberine 8.01, epiberberine 0.82, coptisine 1.38, palmatine 2.03, jatrorrhizine 0.31, columbamine 0.66 mg/kg), read-out: Cmax mean): 30.3 ng/mL
- half-life [5]: 10.9 h
- Tmax [6]: 1.5 h
- AUC(0-t) (female, female rats, Day 28, middle dose (berberine 24.03, epiberberine 2.47, coptisine 2.47, palmatine 6.09, jatrorrhizine 0.93, columbamine 1.98 mg/kg), read-out: AUC0-t mean): 9.42 ng·h/mL
- Cmax (female, female rats, Day 28, middle dose (berberine 24.03, epiberberine 2.47, coptisine 2.47, palmatine 6.09, jatrorrhizine 0.93, columbamine 1.98 mg/kg), read-out: Cmax mean): 1.35 ng/mL
- half-life [6]: 10.7 h
- AUC(0-t) (male, 0.4 g/kg, male rats, Day 1, low dose TAZF 0.4 g/kg by gavage, read-out: AUC0-t): 153 ± 54.9 ng·h/mL
- Cmax (male, 0.4 g/kg, male rats, Day 1, low dose TAZF 0.4 g/kg by gavage, read-out: Cmax): 32.1 ± 28.7 ng/mL
- AUC(0-t) (male, 0.4 g/kg, male rats, Day 28, low dose TAZF 0.4 g/kg by gavage, read-out: AUC0-t): 31.1 ± 2.21 ng·h/mL
- Cmax (male, 0.4 g/kg, male rats, Day 28, low dose TAZF 0.4 g/kg by gavage, read-out: Cmax): 44.2 ± 42.3 ng/mL
- AUC(0-t) (male, 3.7 g/kg, male rats, Day 1, high dose TAZF 3.7 g/kg by gavage, read-out: AUC0-t): 276 ± 92 ng·h/mL
- Cmax (male, 3.7 g/kg, male rats, Day 1, high dose TAZF 3.7 g/kg by gavage, read-out: Cmax): 46.5 ± 30.3 ng/mL
- AUC(0-t) (male, 3.7 g/kg, male rats, Day 28, high dose TAZF 3.7 g/kg by gavage, read-out: AUC0-t): 65.1 ± 6.74 ng·h/mL
- Cmax (male, 3.7 g/kg, male rats, Day 28, high dose TAZF 3.7 g/kg by gavage, read-out: Cmax): 16.4 ± 11.8 ng/mL
- Tmax [7]: 4 h
- AUC(0-t) (male, male rats, Day 1, highest dose (berberine 72.08, epiberberine 7.42, coptisine 7.42, palmatine 18.26, jatrorrhizine 2.80, columbamine 5.93 mg/kg), read-out: AUC0-t mean): 276 ng·h/mL
- Cmax (male, male rats, Day 1, highest dose (berberine 72.08, epiberberine 7.42, coptisine 7.42, palmatine 18.26, jatrorrhizine 2.80, columbamine 5.93 mg/kg), read-out: Cmax mean): 46.5 ng/mL
- half-life [7]: 10.9 h
- Tmax [8]: 10 h
- AUC(0-t) (male, male rats, Day 1, lowest dose (berberine 8.01, epiberberine 0.82, coptisine 1.38, palmatine 2.03, jatrorrhizine 0.31, columbamine 0.66 mg/kg), read-out: AUC0-t mean): 153 ng·h/mL
- Cmax (male, male rats, Day 1, lowest dose (berberine 8.01, epiberberine 0.82, coptisine 1.38, palmatine 2.03, jatrorrhizine 0.31, columbamine 0.66 mg/kg), read-out: Cmax mean): 32.1 ng/mL
- half-life [8]: 47.8 h
- Tmax [9]: 1.83 h
- AUC(0-t) (male, male rats, Day 1, middle dose (berberine 24.03, epiberberine 2.47, coptisine 2.47, palmatine 6.09, jatrorrhizine 0.93, columbamine 1.98 mg/kg), read-out: AUC0-t mean): 207 ng·h/mL
- Cmax (male, male rats, Day 1, middle dose (berberine 24.03, epiberberine 2.47, coptisine 2.47, palmatine 6.09, jatrorrhizine 0.93, columbamine 1.98 mg/kg), read-out: Cmax mean): 41.7 ng/mL
- half-life [9]: 59.9 h
- Tmax [10]: 4.08 h
- AUC(0-t) (male, male rats, Day 28, highest dose (berberine 72.08, epiberberine 7.42, coptisine 7.42, palmatine 18.26, jatrorrhizine 2.80, columbamine 5.93 mg/kg), read-out: AUC0-t mean): 65.1 ng·h/mL
- Cmax (male, male rats, Day 28, highest dose (berberine 72.08, epiberberine 7.42, coptisine 7.42, palmatine 18.26, jatrorrhizine 2.80, columbamine 5.93 mg/kg), read-out: Cmax mean): 16.4 ng/mL
- half-life [10]: 11.2 h
- Tmax [11]: 0.83 h
- AUC(0-t) (male, male rats, Day 28, lowest dose (berberine 8.01, epiberberine 0.82, coptisine 1.38, palmatine 2.03, jatrorrhizine 0.31, columbamine 0.66 mg/kg), read-out: AUC0-t mean): 31.1 ng·h/mL
- Cmax (male, male rats, Day 28, lowest dose (berberine 8.01, epiberberine 0.82, coptisine 1.38, palmatine 2.03, jatrorrhizine 0.31, columbamine 0.66 mg/kg), read-out: Cmax mean): 44.2 ng/mL
- half-life [11]: 7.52 h
- Tmax [12]: 12 h
- AUC(0-t) (male, male rats, Day 28, middle dose (berberine 24.03, epiberberine 2.47, coptisine 2.47, palmatine 6.09, jatrorrhizine 0.93, columbamine 1.98 mg/kg), read-out: AUC0-t mean): 90.6 ng·h/mL
- Cmax (male, male rats, Day 28, middle dose (berberine 24.03, epiberberine 2.47, coptisine 2.47, palmatine 6.09, jatrorrhizine 0.93, columbamine 1.98 mg/kg), read-out: Cmax mean): 21.4 ng/mL
- half-life [12]: 4.07 h
- Systemic exposure after 28 days of administration vs single administration (rats, oral TAZF): much lower
